In ChEMBL document CHEMBL1126443, “Cholinergic agents: aldehyde, ketone, and oxime analogues of the muscarinic agonist UH5” (Bioorg Med Chem Lett, 1992):

Legend:
[1] = Selectivity ratio of M2/m1 receptors
[2] = molecular target: T1, Muscarinic acetylcholine receptor M1 (Homo sapiens, UniProt P11229); test: Displacement of [3H]QNB in genetically transformed mouse cell line (m1C2) transfected with Muscarinic acetylcholine receptor M1
T1 sequence (P11229 whole entry): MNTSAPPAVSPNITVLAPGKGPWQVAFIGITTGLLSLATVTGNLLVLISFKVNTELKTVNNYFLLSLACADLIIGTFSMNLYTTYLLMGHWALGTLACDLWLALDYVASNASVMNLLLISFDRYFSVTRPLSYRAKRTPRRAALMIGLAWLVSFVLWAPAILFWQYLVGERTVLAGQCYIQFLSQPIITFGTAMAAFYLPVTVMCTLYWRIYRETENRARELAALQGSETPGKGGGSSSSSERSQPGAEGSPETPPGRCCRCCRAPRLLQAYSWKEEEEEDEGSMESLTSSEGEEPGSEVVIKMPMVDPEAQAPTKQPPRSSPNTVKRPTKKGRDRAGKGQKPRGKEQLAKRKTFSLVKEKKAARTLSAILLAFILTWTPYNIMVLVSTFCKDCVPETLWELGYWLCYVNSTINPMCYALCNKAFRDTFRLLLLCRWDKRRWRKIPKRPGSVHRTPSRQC

[3] = molecular target: T2, Muscarinic acetylcholine receptor (Rattus norvegicus) (UniProt P08482+P08483+P08485+P08911+P10980); test: Relative binding efficacy for muscarinic receptors using QNB and CMD; format: protein assay
[4] = molecular target: Muscarinic acetylcholine receptor; test: Inhibition of 0.1 nM [3H]cis-methyldioxolane binding to rat neocortex muscarinic receptor; format: protein assay
[5] = molecular target: T3, Muscarinic acetylcholine receptor M2 (Rattus norvegicus, UniProt P10980); test: Displacement of [3H]QNB from Muscarinic acetylcholine receptor M2 from rat heart homogenates; format: tissue-based
T3 sequence (P10980 whole entry): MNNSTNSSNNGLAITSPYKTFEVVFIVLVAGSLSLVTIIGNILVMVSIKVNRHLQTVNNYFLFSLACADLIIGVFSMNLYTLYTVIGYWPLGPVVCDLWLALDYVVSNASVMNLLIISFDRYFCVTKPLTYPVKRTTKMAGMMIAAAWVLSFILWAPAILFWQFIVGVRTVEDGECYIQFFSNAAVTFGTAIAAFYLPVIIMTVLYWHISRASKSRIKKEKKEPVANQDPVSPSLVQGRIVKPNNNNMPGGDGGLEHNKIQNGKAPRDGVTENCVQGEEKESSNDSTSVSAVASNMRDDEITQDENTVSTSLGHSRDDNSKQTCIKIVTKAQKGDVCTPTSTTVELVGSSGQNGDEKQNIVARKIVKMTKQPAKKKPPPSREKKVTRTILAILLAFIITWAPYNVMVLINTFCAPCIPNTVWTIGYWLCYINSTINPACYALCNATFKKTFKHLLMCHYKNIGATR

[6] = molecular target: Muscarinic acetylcholine receptor; test: Inhibition of 0.03 nM [3H]quinuclidinyl benzylate binding to rat neocortex muscarinic receptor; format: protein assay
[7] = molecular target: T2, Muscarinic acetylcholine receptor (Rattus norvegicus); test: Percent inhibition towards muscarinic receptor in rat neocortex using 0.03 nM [3H]quinuclidinyl benzylate receptor binding assay (RQMB) was determined
[8] = molecular target: T2, Muscarinic acetylcholine receptor (Rattus norvegicus); test: Percent inhibition towards muscarinic receptor in rat neocortex using 0.1 nM [3H]cis-methyldioxolane receptor binding assay (RCMD)

| SMILES | Selectivity ratio [1] | IC50 [2] [µM] | Efficacy ratio [3] | IC50 [4] [µM] | IC50 [5] [µM] | IC50 [6] [µM] | inhibition [7] [%] | inhibition [8] [%] |
| --- | --- | --- | --- | --- | --- | --- | --- | --- |
| CC(=O)N(C)CC#CCN1CCCC1 | 0.9 | 2.45 | 544 | 0.0045 | 2.01 | 2.447 | – | – |
| C[N+](C)(C)CC#CCOC(=O)Nc1cccc(Cl)c1.[Cl-] | 4.7 | 7.24 | 84 | 0.064 | 34.1 | 5.388 | – | – |
| CC(=O)C(C)CC#CCN(C)C (centres undefined) | – | – | 549 | 0.101 | – | 55.4 | – | – |
| CO/N=C/C(C)CC#CCN1CCCC1 (centres undefined) | – | – | – | – | – | – | 15 | 27 |
| CC(C=O)CC#CCN1CCCC1 (centres undefined) | – | – | – | – | – | – | 9 | 1 |
| CC(/C=N/O)CC#CCN1CCCC1 (centres undefined) | 4.8 | 0.92 | 92 | 0.021 | 5.5 | 1.928 | – | – |
| CC(=O)CCC#CCN1CCCC1 | – | – | 34 | 0.214 | – | 7.28 | – | – |
| CC(=O)C(C)CC#CCN1CCCC1 (centres undefined) | 2.3 | 2.8 | 97 | 0.059 | 6.5 | 5.696 | – | – |
| CO/N=C(\C)C(C)CC#CCN(C)C (centres undefined) | – | – | – | – | – | – | 3 | 5 |
| CO/N=C(\C)C(C)CC#CCN1CCCC1 (centres undefined) | – | – | – | – | – | – | 26 | 21 |
| C/C(CCC#CCN(C)C)=N\O | – | – | 265 | 0.139 | – | 36.769 | – | – |
| CC(=O)N(C)CC#CCN(C)C | 0.2 | 87.9 | 4070 | 0.0216 | 4.46 | 87.876 | – | – |
| CC(=O)CCC#CCN(C)C | 0.4 | 51.8 | 965 | 0.068 | 18.9 | 65.6 | – | – |
| C/C(=N\O)C(C)CC#CCN1CCCC1 (centres undefined) | – | – | – | – | – | – | 15 | 21 |
| CC(C=O)CC#CCN(C)C (centres undefined) | – | – | – | – | – | – | 0 | 0 |
| C/C(CCC#CCN1CCCC1)=N\O | – | – | 3 | 0.373 | – | 1.254 | – | – |
| CO/N=C(\C)CCC#CCN(C)C | – | – | – | – | – | – | 1 | 5 |
| O=C1CCCN1CC#CCN1CCCC1 [OXOTREMORINE] | 2.4 | 0.364 | 308 | 0.0015 | – | 0.407 | – | – |
| C/C(=N\O)C(C)CC#CCN(C)C (centres undefined) | – | – | – | – | – | – | 9 | 12 |
| CO/N=C(\C)CCC#CCN1CCCC1 | – | – | – | – | – | – | 17 | 5 |
| CO/N=C/C(C)CC#CCN(C)C (centres undefined) | – | – | – | – | – | – | 4 | 6 |
| CC(/C=N/O)CC#CCN(C)C (centres undefined) | 1.3 | 25.9 | 441 | 0.03 | 34.2 | 13.23 | – | – |
